# What was measured:
# Assay in all cases: Competitive kinase engagement in mouse spleen with probe 3 as occupancy probe
# Type in all cases: in vivo, mice
# [1] = biological target: CDK2 (Mus musculus, UniProt P97377); settings: 50 mg/kg oral
# [2] = biological target: CDK17 (Mus musculus, UniProt Q8K0D0); settings: 50 mg/kg oral, probe 3 10 mg/kg s.c., 1 h, p < 0.05
# [3] = biological target: CDK5 (Mus musculus, UniProt P49615); settings: 50 mg/kg oral, probe 3 10 mg/kg s.c., 1 h, p < 0.05
# Chain of CDK5 (P49615 whole entry): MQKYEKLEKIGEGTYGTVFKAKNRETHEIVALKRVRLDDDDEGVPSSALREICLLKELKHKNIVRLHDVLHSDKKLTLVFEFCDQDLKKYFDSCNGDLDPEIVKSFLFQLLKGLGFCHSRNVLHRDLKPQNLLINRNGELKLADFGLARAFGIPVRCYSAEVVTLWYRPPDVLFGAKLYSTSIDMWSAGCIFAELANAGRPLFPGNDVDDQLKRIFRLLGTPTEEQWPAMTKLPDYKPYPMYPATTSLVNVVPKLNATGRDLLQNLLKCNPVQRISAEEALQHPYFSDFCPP
# Chain of CDK17 (Q8K0D0 whole entry): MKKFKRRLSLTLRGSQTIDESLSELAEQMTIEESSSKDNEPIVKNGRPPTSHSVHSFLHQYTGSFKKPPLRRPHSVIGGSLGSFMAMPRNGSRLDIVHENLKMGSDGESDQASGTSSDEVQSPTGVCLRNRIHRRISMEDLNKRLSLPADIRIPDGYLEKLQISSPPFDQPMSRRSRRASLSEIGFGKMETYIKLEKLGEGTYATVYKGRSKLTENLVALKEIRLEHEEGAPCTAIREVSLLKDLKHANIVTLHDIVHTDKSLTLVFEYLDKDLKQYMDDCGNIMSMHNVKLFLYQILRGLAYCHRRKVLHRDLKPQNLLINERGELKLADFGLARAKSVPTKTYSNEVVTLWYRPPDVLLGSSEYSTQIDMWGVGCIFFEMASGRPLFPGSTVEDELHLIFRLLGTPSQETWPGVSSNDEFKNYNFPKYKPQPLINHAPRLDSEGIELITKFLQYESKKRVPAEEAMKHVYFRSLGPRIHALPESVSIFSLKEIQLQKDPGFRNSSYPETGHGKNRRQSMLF
structure (smiles),measurement,setting,value
C[C@@]1(O)CCC[C@H]1n1c(=O)c(C(F)F)cc2cnc(NC3CCN(S(C)(=O)=O)CC3)nc21 [PF-06873600],estimated occupancy of CDK2 in spleen tissue,"[1]; mice, based on competition with probe 3",> 80%
same,"log2 FC of enrichment by probe 3, PF-06873600 vs. vehicle","[1]; mouse spleen, probe 3 10 mg/kg s.c., 1 h, p < 0.05",< –2
same,"log2 FC of enrichment by probe 3, PF-06873600 vs. vehicle",[2],< –2
same,"log2 FC of enrichment by probe 3, PF-06873600 vs. vehicle",[3],~ –1

# Source: PMC9970282 (Nature chemical biology, 2022)
